Results taken from patent US7410965B2, “Delayed release pharmaceutical composition containing 1-dimethyl-amino-3-(3-methoxyphenyl)-2-methyl-pentan-3-ol” (Gruenenthal GmbH, priority 2002, dated 2008).
Marks after values point to notes of the source that are not given here.

Tested on: female Sprague-Dawley rats
Assay: Cystometry test system on conscious fresh rats
Format: in vivo, rat
Settings: for BC Bladder Capacity, change compared to the baseline value / ICI Inter-Contraction Interval, change compared to the baseline value / TP Threshold Pressure, change compared to the baseline value: effect maximum; for effect on the bladder regulation (in words): cystometry, iv
Procedure: Cystometry investigations were carried out on fresh female Sprague-Dawley rats according to the method of Ishizuka et al. ((1997), Naunyn-Schmiedeberg's Arch. Pharmacol. 355: 787-793). Three days after implantation of bladder and venous catheters the animals were investigated in the conscious state while freely moving. The bladder catheter was connected to a pressure gauge and an injection pump. The animals were placed in metabolic cages that enabled the volume of urine to be measured. Physiological saline solution was infused (10 ml/hour) into the emptied bladder and the bladder pressure and volume of urine were continuously recorded. After a stabilisation phase a 20-minute phase was recorded that was characterised by normal, reproducible micturition cycles. The following parameters among others were measured: • threshold pressure TP, bladder pressure immediately before micturition, • bladder capacity BC, residual volume after prior micturition plus volume of infused solution during the filling phase, • intercontraction interval ICI, i.e. the time interval between consecutive micturition.
An increase in the threshold pressure (TP) indicates an important therapeutic effect in one of the medical conditions covered by the invention. Also, the intercontraction interval (ICI) is an important parameter for measuring the physiological effectiveness of a substance in the treatment of urinary incontinence, as is the bladder capacity (BC). In this connection, on account of the widely differing causes of the symptoms of these disease patterns it is not necessary to influence positively all three parameters in order for a medicament to be effective.
After recording three reproducible micturition cycles to provide a baseline value, the test substances (1 (1.0 mg/kg), 2 (0.1; 0.3 and 0.5 mg/kg) and 21 (0.5 mg/kg), in a vehicle comprising 0.9% NaCl were applied intravenously and the effect on the cystometric parameters was recorded at 90 to 120 minutes. In the effect maximum the mean value of 3 micturition cycles was determined and recorded as a percentage change compared to the baseline value (Table 1).

Row | SMILES | BC Bladder Capacity, change compared to the baseline value (1.0 mg/kg iv) | ICI Inter-Contraction Interval, change compared to the baseline value (1.0 mg/kg iv) | TP Threshold Pressure, change compared to the baseline value (1.0 mg/kg iv) | BC Bladder Capacity, change compared to the baseline value (0.1 mg/kg iv) | ICI Inter-Contraction Interval, change compared to the baseline value (0.1 mg/kg iv) | TP Threshold Pressure, change compared to the baseline value (0.1 mg/kg iv) | BC Bladder Capacity, change compared to the baseline value (0.3 mg/kg iv) | ICI Inter-Contraction Interval, change compared to the baseline value (0.3 mg/kg iv) | TP Threshold Pressure, change compared to the baseline value (0.3 mg/kg iv) | BC Bladder Capacity, change compared to the baseline value (0.5 mg/kg iv) | ICI Inter-Contraction Interval, change compared to the baseline value (0.5 mg/kg iv) | TP Threshold Pressure, change compared to the baseline value (0.5 mg/kg iv) | effect on the bladder regulation (in words)
1 | CC[C@](O)(c1cccc(OC)c1)[C@H](C)CN(C)C.Cl (racemic) [Compound 1, (2RS,3RS)-1-dimethylamino-3-(3-methoxyphenyl)-2-methylpentan-3-ol; hydrochloride] | +31%*** | +42% | +94%** |  |  |  |  |  |  |  |  |  | 
2 | CC[C@](O)(c1cccc(OC)c1)[C@H](C)CN(C)C.Cl [Compound 2, (+)-(2R,3R)-1-dimethylamino-3-(3-methoxyphenyl)-2-methylpentan-3-ol; hydrochloride] |  |  |  | +7.8% | +15.6% | +28.5%** | +33%* | +28%* | +122%** | +20.6%* | +28.6%** | +77.5%** | very effective
3 | CC[C@@](O)(c1cccc(OC)c1)[C@@H](C)CN(C)C.Cl [Compound 21, (−)-(2S,3S)-1-dimethylamino-3-(3-methoxyphenyl)-2-methylpentan-3-ol; hydrochloride] |  |  |  |  |  |  |  |  |  | +3% | +10% | −1.1% | does not exhibit such a marked effect
